Source: US11046651B2, “Piperazine substituted azapine derivatives and uses thereof” (Alairion, Inc., priority 2019, dated 2021)

Experiments:
male Wistar rats = assay: SCORE EEG/EMG sleep-wake monitoring: sleep continuity, number of arousals, depth of sleep; assay type: in vivo, rat; conditions: 30 mg/kg PO
Procedure: Example 30. Experimental Details and Methods for Determining Sleep Continuity, Number of Arousals, and Depth of Sleep
Treatment detail plots (see, e.g., FIGS. 1-10) depict pre- and post-treatment time series plot ±30 hours before and after treatment at CT-18 (6-hours after lights-off) or pre- and post-treatment time series plots 29 hr before and 31 hr after treatments at CT-5 (5-hours after lights-on). Treatment occurred at the beginning of the hour marked by a triangle on the abscissa of the plot. Variables were computed in hourly bins.
All data were plotted as group mean±SEM (see, e.g., FIGS. 1-10). The gray shaded area encompasses the vehicle treatment mean±SEM. Along the x-axis, time of treatment is marked by a triangle unless noted otherwise. Along the x-axis, light/dark bars indicate lights on/off.
Adult, male Wistar rats (approximately 270 g at time of surgery, Charles River Laboratories) were administered dexmedetomidine 25 μg/kg and anesthetized (2% isoflourane in 95/5 oxygen, to effect) and surgically prepared with a cranial implant that permitted chronic electro-encephalogram (EEG) and electromyogram (EMG) recording. Body temperature and locomotor activity were monitored via a miniature transmitter (Minimitter Series PDT4000 E-Mitter, Bend, Oreg.) surgically placed in the abdomen during the same anesthetic event when the cranial portion was implanted. The cranial implant consisted of miniature stainless steel screws (2 frontal [+3.9 AP from bregma, 2.0 ML], 2 occipital [−6.4 AP, 5.5 ML], and 1 ground placed sagittaly and posterior to lambda) for EEG recording. Two Teflon-coated multi-strand stainless steel wires were positioned under the nuchal trapezoid muscles for EMG recording. All leads were soldered to a miniature connector (Omnetics, Minneapolis, Minn.) and gas sterilized with ethylene oxide prior to surgery. The implant assembly was affixed to the skull by the combination of the EEG recording screws, cyanoacrylate applied between the hermetically sealed implant connector and skull, and a UV-curing dental acrylic. An analgesic (meloxicam 1 mg/kg IP) was administered 1 day prior to surgery and daily for 2 days post-surgery. Neosporin with lidocaine was applied topically to the peri-implant margin. At least three weeks were allowed for surgical recovery prior to any data collection.
Rats were housed individually within specially modified Innovive® cages equipped with a custom-built ultra-low-torque slip-ring commutator and a customized Innovive® polycarbonate cage-top. These cages were located on shelves of a modified stainless steel animal rack that was pre-wired for physiological and behavioral data collection. Food and water were available ad libitum and the ambient temperature was 22±1° C. A 24-hr light-dark cycle (LD 12:12) was maintained throughout the study using LED lighting strips. Light intensity averaged 35 lux at mid-level inside the cage. Relative humidity averaged 50% approximately. Animals were undisturbed for two days before and after each treatment.
Sleep and wakefulness were determined using SCORE™—a Linux and Windows-10 real-time computer-based sleep-wake and physiological monitoring system. Validation of the SCORE™ sleep stage identification algorithm in rodents and the system's utility in pre-clinical drug discovery and evaluation have been previously described (Edgar et al. Psychopharmacology 1991, 105, 374; Gilmour et al., Neuropharmacology 2012, 64, 224; McCarthy et al., 2016, Neuropharmacology 108, 415; Olive et al., J. Pharmacology &Experimental Therapeutics 1998 285, 1073; Phillips et al, Neuropharmacology 2012, 62, 1359; Seidel et al. J Pharmacology &Experimental Therapeutics 1995, 275, 263; Van Gelder et al. Sleep 1991, 14, 48). […]

5-HT2A = 5-HT2A (Homo sapiens (Human), UniProt P28223); assay: 5-HT2A binding assay ([3H]-Ketanserin, HEK293 stable cell line membranes); conditions: Table F, class symbols
Procedure: H1 and 5-HT2A Binding Assay Protocol
The testing compounds were diluted with DMSO, starting at 2 mM, with 8-points and 5-fold serial dilutions. Ketanserin and Pyrilamine were diluted with DMSO, starting at 0.2 mM, with 8-points and 5-fold serial dilution.
1 μl of a compounds of the present disclosure and either reference compound (Table C) were transferred to assay plates. 1 μl of 0.2 mM Ketanserin or Pyrilamine was transferred to an assay plate according to the plate map for nonspecific binding (Low control: LC). 1 μl of DMSO was transferred to an assay plate according to plate map for total binding (High control: HC).
100 μlof membrane stocks were dispensed into the plates, following the plate map. 100 of radio ligand was added. The plates were sealed and shaken at 300 rpm at room temperature for 1 hour. The Unifilter-96 GF/C filter plates were soaked with 50 of 0.3% PEI per well for at least 0.5 hour at room temperature.
When the binding assays were complete, the reaction mixture was filtered through GF/C plates using Perkin Elmer Filtermate Harvester, and then each plate was washed 4 times with cold wash buffer. The filter plates were dried for 1 hour at 50 degrees. After drying, the bottom of the filter plate wells were sealed using Perkin Elmer Unifilter-96 backing seal tape. 50 μl of Perkin Elmer Microscint 20 cocktail was added. The top of the filter plates were sealed with Perkin Elmer TopSeal-A sealing film.
^3H trapped on filters were counted using Perkin Elmer MicroBeta2 Reader. Inhibition constants were calculated using the following equation:
[formula] The data was analyzed using Prism 5. The model used was “log(inhibitor) vs. response—Variable slope” to fit the data and calculate IC50. The IC50 was then converted to Ki using following equation: Ki=IC50/(1+L/Kd). L is the radioligand concentration in the reaction system; Kd is the affinity of radioligand to the receptor.

[1] = Human clearance and half-life projections (allometric scaling from monkey clearance)
Procedure: (§1) The biological activity of the compounds of the present disclosure may be determined utilizing projected human clearance (CL) and half-life in humans. An allometric scaling method, using a single species scaling from monkey clearance was used to project clearance. Human volume of distribution (Vd) was projected from animal Vd, adjusted for differences in plasma protein binding and assuming similar unbound Vd across species. Human half-life (T1/2) was calculated based on a one-compartmental model, using a relationship of T1/2=0.693×(predicted Vd/predicted CL).
as §1, with “An” for “The biological activity of the compounds of the present disclosure may be determined utilizing projected human clearance (CL) and half-life in humans. An”

Sequence of 5-HT2A (P28223 whole entry, species assumed): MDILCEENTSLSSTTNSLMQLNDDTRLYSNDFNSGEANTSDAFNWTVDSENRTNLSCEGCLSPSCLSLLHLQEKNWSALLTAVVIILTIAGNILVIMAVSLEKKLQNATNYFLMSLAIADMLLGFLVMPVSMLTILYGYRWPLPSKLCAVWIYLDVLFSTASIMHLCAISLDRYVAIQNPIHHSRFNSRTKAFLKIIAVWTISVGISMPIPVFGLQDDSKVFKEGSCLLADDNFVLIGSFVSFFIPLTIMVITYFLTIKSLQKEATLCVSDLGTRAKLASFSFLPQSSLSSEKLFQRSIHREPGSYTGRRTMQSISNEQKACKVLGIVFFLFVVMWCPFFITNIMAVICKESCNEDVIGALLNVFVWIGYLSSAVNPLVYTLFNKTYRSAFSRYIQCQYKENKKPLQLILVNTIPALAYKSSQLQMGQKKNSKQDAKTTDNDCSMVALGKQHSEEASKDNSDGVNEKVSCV

SMILES: Cc1ccc2c(c1)Oc1cc(C)ccc1C(N1CCN(CC(C)(C)C(=O)O)CC1)=N2 [Compound No. 7, 3-(4-(3,7-dimethyldibenzo[b,f][1,4]oxazepin-11-yl)piperazin-1-yl)-2,2-dimethylpropanoic acid]
- reductions in the number of transitions from sleep to wake per hour relative to controls (male Wistar rats; CT-5, male Wistar rats): 40-50%
- increase in sleep bout-length per hour relative to vehicle control (male Wistar rats; CT-18, male Wistar rats): 3-4 fold
- normalized EEG delta power (slow wave activity) during nonREM sleep (male Wistar rats; CT-18, male Wistar rats): increases in EEG slow wave activity in nonREM sleep
- Ki (5-HT2A): 1 to 25 nM
- T1/2 (h), projected human half-life ([1]; one-compartmental model, T1/2=0.693×(predicted Vd/predicted CL)): 4 to 8 h
- CL (mL/min/kg), projected human clearance ([1]; single species scaling from monkey clearance): 1.3 mL/min/kg
